Reference: US11884671B2, “Purinone compounds and their use in treating cancer” (ASTRAZENECA AB, priority 2018, dated 2024)

Experiments:
[1] = target: Full length human DNAPK protein (Homo sapiens (Human), UniProt P78527); test: DNAPK enzyme potency assay (DNA-PK enz), TR-FRET; format: biochemical; settings: arithmetic mean of two or more experiments, 18 μM ATP; for IC50: read-out: DNA-PK enz pIC50 (converted)
From the text: The following assays were used to measure the effects of the compounds described herein: a) DNAPK enzyme potency assay; b) DNAPK cellular potency assay. During the description of the assays, generally: • i. The following abbreviations have been used; DMSO=Dimethyl Sulphoxide; DTT=Dithiothreitol; EDTA=Ethylenediaminetetraacetic Acid, TR-FRET=Time Resolved Fluorescence Resonance Energy Transfer, ATP=Adenosine triphosphate, DTT=Dithiothreitol, DNA=Deoxyribonucleic acid, HEPES=(2-hydroxyethyl)-1-piperazineethanesulfonic acid • ii. […] Assay a): DNAPK Enzyme Potency Assay (DNA-PK Enz)
The inhibitory activity of compounds against DNAPK was determined by TR-FRET measuring a fluorescent labelled peptide substrate converting to a phosphorylated product. Fluorescently tagged peptide substrate were purchased from Thermo Fisher Scientific. 12 point half-log compound concentration-response curves, with a top concentration of 100 μM were generated from 10 mM stocks of compound solubilised in DMSO using an Echo 555 (Labcyte Inc., Sunnyvale, CA). All assays were preformed in white Greiner 1536 well low volume plates (Greiner Bio-One, UK), in a total reaction volume of 3 μL and 1% (v/v) final DMSO concentration. Enzymes and substrates were added separately to the compound plates and incubated at room temperature. The kinase reaction was then quenched by the addition of 3 μL of stop buffer. Stopped assay plates were read using a BMG Pherastar. IC50 values were calculated using a Genedata Screener® software (Genedata, Inc., Basel, Switzerland).
Full length human DNAPK protein was purified from HeLa cell extract by ion exchange. Initially DNAPK protein was incubated with compound for 30 minutes at room temperature in reaction buffer (50 mM Hepes pH 7.5, 0.01% Brij-35, 10 mM MgCl2, 1 mM EGTA, 1 mM DTT, […] Calf Thymus DNA). The reaction was then initiated by the addition of ATP and fluorescently tagged peptide substrate (Fluorescein-[…], Thermo Fisher Scientific). […] The reaction was incubated for a further hour and the plates were read on a BMG Pherastar.
(§1) Data was analysed and IC50 values were calculated using Genedata Screener® software (Genedata, Inc., Basel, Switzerland).

DNAPK = DNAPK (Homo sapiens (Human), UniProt P78527); test: DNAPK cellular potency assay (DNA-PK cell), pS2056-DNAPK ELISA in irradiated A549 cells; format: cell-based; settings: 8 Gy radiation, arithmetic mean of two or more experiments, read-out: DNA-PK cell pIC50 (converted)
Description: The DNAPK cell ELISA assay was performed in the A549 cell line. A549 cells were cultured in cell media composed of MEM-F12 (Minimum Essential Medium F12 Sigma #D6421), 10% (v/v) Foetal Calf Serum and 1% (v/v) 200 mM L-Glutamine. […] The following day the Greiner ELISA plates were washed 3× with PBS-T and blocked with 3% BSA/PBS for 2 h, before a further 3× wash with PBS-T.
The cell plates were then incubated for 1 h at 37° C. before receiving a radiation dose of 8 Gy (XRAD 320, table height 65). The cells were incubated for a further 1 h before removal of cell media. […] Cell lysates ([…]) were transferred to the DNAPK antibody-coated ELISA plates using a CyBio Felix liquid handling platform, and ELISA plates were incubated at 4° C. overnight.
The following day, ELISA plates were washed 3× with PBS-T and dispensed with in-house pS2056-DNAPK antibody (0.5 μg/mL in 3% BSA/PBS) at 20 ul/well.
The fluorescence intensity of individual wells was determined using a PerkinElmer EnVision plate reader.
as §1

Row | SMILES | DNA-PK enz pIC50 [1] | IC50 (DNAPK) | IC50 [1]
1 | Cc1cc2nccnc2cc1Nc1ncc2c(n1)n([C@H]1CCCOC1)c(=O)n2C [Example 28, (S)-7-methyl-2-((7-methylquinoxalin-6-yl)amino)-9-(tetrahydro-2H-pyran-3-yl)-7,9-dihydro-8H-purin-8-one] | >10 | 15.8 nM | –
2 | Cc1cnc2cc(Nc3ncc4c(n3)n(C3CCOCC3)c(=O)n4C)c(C)cc2n1 [Example 33, 2-((2,7-dimethylquinoxalin-6-yl)amino)-7-methyl-9-(tetrahydro-2H-pyran-4-yl)-7,9-dihydro-8H-purin-8-one] | – | 126 nM | 0.501 nM
3 | Cc1cnc2cc(C)c(Nc3ncc4c(n3)n(C3CCOCC3)c(=O)n4C)cc2n1 [Example 34, 2-((3,7-dimethylquinoxalin-6-yl)amino)-7-methyl-9-(tetrahydro-2H-pyran-4-yl)-7,9-dihydro-8H-purin-8-one] | – | 31.6 nM | < 0.1 nM
4 | Cc1cc2ncccc2cc1Nc1ncc2c(n1)n(C1CCS(=O)(=O)CC1)c(=O)n2C [Example 35, 9-(1,1-dioxidotetrahydro-2H-thiopyran-4-yl)-7-methyl-2-((7-methylquinolin-6-yl)amino)-7,9-dihydro-8H-purin-8-one] | >10 | 39.8 nM | –
5 | Cc1cc2ncccc2cc1Nc1ncc2c(n1)n(C1COC1)c(=O)n2C [Example 36, 7-methyl-2-((7-methylquinolin-6-yl)amino)-9-(oxetan-3-yl)-7,9-dihydro-8H-purin-8-one] | 9.7 | 31.6 nM | –
6 | Cc1cc2ncccc2cc1Nc1ncc2c(n1)n([C@@H]1CCNC[C@@H]1F)c(=O)n2C [Example 38, 9-((3S,4R)-3-fluoropiperidin-4-yl)-7-methyl-2-((7-methylquinolin-6-yl)amino)-7,9-dihydro-8H-purin-8-one] | 8.0 | 3160 nM | –
7 | Cc1cc2ncccc2cc1Nc1ncc2c(n1)n([C@H]1CC[C@@](C)(N)CC1)c(=O)n2C [Example 39, 9-((1s,4s)-4-amino-4-methylcyclohexyl)-7-methyl-2-((7-methylquinolin-6-yl)amino)-7,9-dihydro-8H-purin-8-one] | – | 79.4 nM | 1 nM
8 | Cc1cc2ncccc2cc1Nc1ncc2c(n1)n([C@H]1CC[C@](C)(N)CC1)c(=O)n2C [Example 40, 9-((1r,4r)-4-amino-4-methylcyclohexyl)-7-methyl-2-((7-methylquinolin-6-yl)amino)-7,9-dihydro-8H-purin-8-one] | – | 158 nM | 0.316 nM
9 | Cc1cc2ncccc2cc1Nc1ncc2c(n1)n([C@@H]1CCN(C)C[C@@H]1F)c(=O)n2C [Example 46, 9-((3S,4R)-3-fluoro-1-methylpiperidin-4-yl)-7-methyl-2-((7-methylquinolin-6-yl)amino)-7,9-dihydro-8H-purin-8-one] | 8.1 | 631 nM | –
10 | Cc1cc2ncccc2cc1Nc1ncc2c(n1)n(C1CCN(C3COC3)CC1)c(=O)n2C [Example 47, 7-methyl-2-((7-methylquinolin-6-yl)amino)-9-(1-(oxetan-3-yl)piperidin-4-yl)-7,9-dihydro-8H-purin-8-one] | 9.0 | 200 nM | –
11 | Cc1cc2ncccc2cc1Nc1ncc2c(n1)n(C1CCN(CCO)CC1)c(=O)n2C [Example 48, 9-(1-(2-hydroxyethyl)piperidin-4-yl)-7-methyl-2-((7-methylquinolin-6-yl)amino)-7,9-dihydro-8H-purin-8-one] | 9.0 | 316 nM | –
12 | COCCN1CCC(n2c(=O)n(C)c3cnc(Nc4cc5cccnc5cc4C)nc32)CC1 [Example 49, 9-(1-(2-methoxyethyl)piperidin-4-yl)-7-methyl-2-((7-methylquinolin-6-yl)amino)-7,9-dihydro-8H-purin-8-one] | 8.8 | 251 nM | –
13 | CCN1CCC(n2c(=O)n(C)c3cnc(Nc4cc5cccnc5cc4C)nc32)CC1 [Example 50, 9-(1-ethylpiperidin-4-yl)-7-methyl-2-((7-methylquinolin-6-yl)amino)-7,9-dihydro-8H-purin-8-one] | 8.4 | 398 nM | –
14 | CC(=O)N1CCC(n2c(=O)n(C)c3cnc(Nc4cc5cccnc5cc4C)nc32)CC1 [Example 51, 9-(1-acetylpiperidin-4-yl)-7-methyl-2-((7-methylquinolin-6-yl)amino)-7,9-dihydro-8H-purin-8-one] | >10 | 12.6 nM | –
